According to ChEMBL document CHEMBL2057197, “Synthesis and evaluation of water-soluble resveratrol and piceatannol via BGLation” (Bioorg Med Chem Lett, 2012):
Calls of active or inactive are those of the source. The rule behind the calls is not given here.

How the values were obtained:
3T3-L1 [1] = test: Induction of mitochondrial fusion in mouse 3T3L1 cells at 10 to 50 uM after 48 hrs by green Fm-staining; assay type: functional, cell-based
3T3-L1 [2] = test: Reduction in triglyceride level in mouse 3T3L1 cells at 10 to 50 uM after 48 hrs; assay type: functional, cell-based

With `Oc1cc(O)cc(/C=C/c2ccc(O)c(O)c2)c1` the Activity (3T3-L1 [1]) was “Active” and the Activity (3T3-L1 [2]) was “Active”.
`OCC(CO)OCC(COC(CO)CO)n1cc(COc2cc(O)cc(/C=C/c3ccc4c(c3)OCO4)c2)nn1` was tested, and the Activity (3T3-L1 [1]) was “Active” and the Activity (3T3-L1 [2]) was “inactive”.
With `COc1ccc(/C=C/c2cc(O)cc(OCc3cn(C(COC(CO)CO)COC(CO)CO)nn3)c2)cc1` the Activity (3T3-L1 [1]) was “inactive” and the Activity (3T3-L1 [2]) was “inactive”.
With `OCC(CO)OCC(COC(CO)CO)n1cc(COc2cc(O)cc(/C=C/c3ccc(O)cc3)c2)nn1` the Activity (3T3-L1 [1]) was “inactive” and the Activity (3T3-L1 [2]) was “inactive”.
For `OCC(CO)OCC(COC(CO)CO)n1cc(COc2cc(O)cc(/C=C/c3ccc(O)c(O)c3)c2)nn1`, the Activity (3T3-L1 [1]) was “Active” and the Activity (3T3-L1 [2]) was “Active”.
